Where “and” joins values, the source holds several entries; their conditions need not be identical. Equal values may be shown once. Inconclusive results and toxic doses are left out.

Experimental findings from PubChem BioAssay AID330 (DTP/NCI, 2004) are described below.

The test deals with P388 leukemia ip, CD2F1 mice, survival T/C. Put plainly: NCI In Vivo Anticancer Drug Screen. Data for tumor model P388 Leukemia (intraperitoneal) in CD2F1 (CDF1) mice. The note with it: endpoint: median survival time, higher = longer survival. The essentials:
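Mice carrying the transplanted tumor received test compound or vehicle. Survival was recorded in each group, and the value is the treated-group measurement divided by that of the vehicle-treated control group.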

Where [1] appears, read: dose: 100.0 mg/kg/injection, schedule: Q04DX003 (ip), vehicle: saline.
The mark [2] stands for this setting: dose: 200.0 mg/kg/injection, schedule: Q04DX003 (ip), vehicle: saline.
[3] abbreviates: dose: 400.0 mg/kg/injection, schedule: Q04DX003 (ip), vehicle: saline.
The mark [4] stands for this setting: dose: 50.0 mg/kg/injection, schedule: Q01DX009 (ip), vehicle: Klucel (hydroxypropylcellulose) (HPC).
Setting [5] is: dose: 100.0 mg/kg/injection, schedule: Q01DX009 (ip), vehicle: Klucel (hydroxypropylcellulose) (HPC).
Setting [6] is: dose: 12.5 mg/kg/injection, schedule: Q01DX009 (ip), vehicle: saline.
The mark [7] stands for this setting: dose: 25.0 mg/kg/injection, schedule: Q01DX009 (ip), vehicle: saline.
The mark [8] stands for this setting: dose: 100.0 mg/kg/injection, schedule: Q01DX009 (ip), vehicle: saline with Tween-80.
Where [9] appears, read: dose: 200.0 mg/kg/injection, schedule: Q01DX009 (ip), vehicle: saline with Tween-80.
Where [10] appears, read: dose: 100.0 mg/kg/injection, schedule: Q04DX003 (ip), vehicle: saline with Tween-80.
Setting [11] is: dose: 200.0 mg/kg/injection, schedule: Q04DX003 (ip), vehicle: saline with Tween-80.
Where [12] appears, read: dose: 12.5 mg/kg/injection, schedule: Q01DX009 (ip), vehicle: saline with Tween-80.
The mark [13] stands for this setting: dose: 50.0 mg/kg/injection, schedule: Q01DX009 (ip), vehicle: saline with Tween-80.
Where [14] appears, read: dose: 60.0 mg/kg/injection, schedule: Q01DX005 (ip), vehicle: saline.
Where [15] appears, read: dose: 120.0 mg/kg/injection, schedule: Q01DX005 (ip), vehicle: saline.
The mark [16] stands for this setting: dose: 240.0 mg/kg/injection, schedule: Q01DX005 (ip), vehicle: saline.
Setting [17] is: dose: 100.0 mg/kg/injection, schedule: Q01DX001 (ip), vehicle: Klucel (hydroxypropylcellulose) (HPC).
Where [18] appears, read: dose: 200.0 mg/kg/injection, schedule: Q01DX001 (ip), vehicle: Klucel (hydroxypropylcellulose) (HPC).

Turning to `O=C(O)CCCc1ccc(N(CCO)CCO)cc1`, the T/C was 114 % of control under setting [1], 109 % of control under setting [2] and 103 % of control under setting [3].
In the case of `c1cc2cc(c1)CSCc1cccc(c1)CSCc1cccc(c1)CSC2`, the T/C by setting is: (dose: 50.0 mg/kg/injection, schedule: Q04DX002 (ip), vehicle: saline) 96 % of control; (dose: 100.0 mg/kg/injection, schedule: Q04DX002 (ip), vehicle: saline) 93 % of control; (dose: 200.0 mg/kg/injection, schedule: Q04DX002 (ip), vehicle: saline) 93 % of control.
As for `Cc1ccc(C)c(C2(c3cc(C)ccc3C)CCCCCC2=O)c1`, where the note is “dose: 100.0 mg/kg/injection, schedule: Q01DX005 (ip), vehicle: Klucel (hydroxypropylcellulose) (HPC)”, the T/C is 88 % of control.
As to `OCC1OC(Oc2ccc3cc(Br)ccc3c2)C(O)C1O` (stereo unspecified), the T/C was 90 % of control under setting [4]; 99 % of control under setting [5]; 97 % of control (dose: 200.0 mg/kg/injection, schedule: Q01DX009 (ip), vehicle: Klucel (hydroxypropylcellulose) (HPC)).
For `CCOC(=CP(=O)(c1ccccc1)c1ccccc1)OCC`, the T/C is 106 % of control (dose: 50.0 mg/kg/injection, schedule: Q01DX005 (ip), vehicle: distilled water + Tween-80 + alcohol); 105 % of control (dose: 100.0 mg/kg/injection, schedule: Q01DX005 (ip), vehicle: distilled water + Tween-80 + alcohol); 100 % of control (dose: 200.0 mg/kg/injection, schedule: Q01DX005 (ip), vehicle: distilled water + Tween-80 + alcohol).
`CN(C)c1ccc(/C=C/c2ccnc3ccccc23)c(F)c1`: the T/C was 86 % of control (dose: 50.0 mg/kg/injection, schedule: Q01DX009 (ip), vehicle: saline); 92 % of control (dose: 100.0 mg/kg/injection, schedule: Q01DX009 (ip), vehicle: saline); 86 % of control (dose: 200.0 mg/kg/injection, schedule: Q01DX009 (ip), vehicle: saline).
As to `O=P(Oc1cccc2ccccc12)(N1CC1)N1CC1`, the T/C by setting is: (dose: 6.25 mg/kg/injection, schedule: Q01DX009 (ip), vehicle: saline) 90 % of control; under setting [6], 95 % of control; under setting [7], 100 % of control; under setting [8], 177 % of control; under setting [9], 95 % of control.
As to `COc1cc(CCN(C)C)c([N+](=O)[O-])cc1OC`, the T/C reads like this: under setting [6], 90 % of control; under setting [7], 89 % of control.
Regarding `NC(=S)N/N=C/c1nc2ccccn2c1[N+](=O)[O-]`, under setting [5], the T/C is 86 % of control.
Consider `CC(=O)NCC(=O)c1ccc(Cl)cc1`, for which the T/C is 120 % of control under setting [10]; 120 % of control under setting [11]; 105 % of control (dose: 400.0 mg/kg/injection, schedule: Q04DX003 (ip), vehicle: saline with Tween-80).
As to `O=c1c2cnc(-c3ccccc3)nc2oc2ccc3ccccc3c12`, the T/C reads like this: under setting [12], 97 % of control; (dose: 25.0 mg/kg/injection, schedule: Q01DX009 (ip), vehicle: saline with Tween-80) 96 % of control; under setting [13], 87 % of control and 92 % of control; under setting [8], 90 % of control.
`O=[N+]([O-])c1cc(Br)cc2c1[nH]c1nc3ccc(C(F)(F)F)cc3nc12`: the T/C is 91 % of control under setting [1], 95 % of control under setting [2] and 94 % of control under setting [3].
As to `Nc1cc(F)ccc1CC(=O)O`, the T/C is, setting by setting: under setting [14], 103 % of control; under setting [15], 99 % of control; under setting [16], 99 % of control.
Take `CCC1=C(NCc2ccccc2)COC1=O`: the T/C by setting is: (dose: 50.0 mg/kg/injection, schedule: Q01DX001 (ip), vehicle: Klucel (hydroxypropylcellulose) (HPC)) 100 % of control; under setting [17], 101 % of control; under setting [18], 100 % of control.
For `Cc1nnc2sc(/C=C/c3ccccc3)nn12`, the T/C is, setting by setting: under setting [17], 101 % of control; under setting [18], 102 % of control; (dose: 400.0 mg/kg/injection, schedule: Q01DX001 (ip), vehicle: Klucel (hydroxypropylcellulose) (HPC)) 101 % of control.
`Cc1nn(C(=O)c2cccnc2)c(-c2ccccc2)c1N=Nc1ccc(S(N)(=O)=O)cc1`: the T/C by setting is: (dose: 100.0 mg/kg/injection, schedule: Q04DX002 (ip), vehicle: saline with Tween-80) 90 % of control; (dose: 200.0 mg/kg/injection, schedule: Q04DX002 (ip), vehicle: saline with Tween-80) 90 % of control; (dose: 400.0 mg/kg/injection, schedule: Q04DX002 (ip), vehicle: saline with Tween-80) 95 % of control.
For `CCN(CCO)CC(O)Cn1cnc2c(N)ncnc21` (stereo unspecified) (tested in a mixture with another compound), the T/C runs as follows: under setting [14], 97 % of control; under setting [15], 100 % of control; under setting [16], 95 % of control.
In the case of `O=c1[nH]cnc2ccc3cn[nH]c3c12`, the T/C is 100 % of control (dose: 50.0 mg/kg/injection, schedule: Q01DX005 (ip), vehicle: saline with Tween-80); 105 % of control (dose: 100.0 mg/kg/injection, schedule: Q01DX005 (ip), vehicle: saline with Tween-80); 106 % of control (dose: 200.0 mg/kg/injection, schedule: Q01DX005 (ip), vehicle: saline with Tween-80).
Turning to `Cc1ccc2c(c1)sc1nnc(C)n12`, the T/C was 114 % of control under setting [4] and 97 % of control under setting [5].
Consider `C=C(Cl)C(=NC(C)(C)C)N(CC)CC`, for which the T/C (dose: 12.5 mg/kg/injection, schedule: Q01DX005 (ip), vehicle: Klucel (hydroxypropylcellulose) (HPC)) was 104 % of control; the T/C (dose: 25.0 mg/kg/injection, schedule: Q01DX005 (ip), vehicle: Klucel (hydroxypropylcellulose) (HPC)) was 104 % of control; the T/C (dose: 50.0 mg/kg/injection, schedule: Q01DX005 (ip), vehicle: Klucel (hydroxypropylcellulose) (HPC)) was 107 % of control and 110 % of control.
Regarding `CC(C)(C)N=C(CCSc1ccccc1)Nc1c(Cl)cccc1Cl`, the T/C under setting [13] is 100 % of control, the T/C under setting [8] was 105 % of control and the T/C under setting [9] was 96 % of control.
Consider `Cc1c(Cl)cc[n+]([O-])c1C`, for which the T/C reads like this: (dose: 25.0 mg/kg/injection, schedule: Q01DX009 (ip), vehicle: other) 100 % of control; (dose: 50.0 mg/kg/injection, schedule: Q01DX009 (ip), vehicle: other) 108 % of control; (dose: 100.0 mg/kg/injection, schedule: Q01DX009 (ip), vehicle: other) 108 % of control; (dose: 200.0 mg/kg/injection, schedule: Q01DX009 (ip), vehicle: other) 107 % of control; (dose: 400.0 mg/kg/injection, schedule: Q01DX009 (ip), vehicle: other) 110 % of control.
Consider `COc1cccc(/C=N/NC(=O)N/N=C/c2cccc(OC)c2O)c1O`, for which the T/C by setting is: under setting [13], 92 % of control; under setting [8], 100 % of control; under setting [9], 101 % of control; (dose: 400.0 mg/kg/injection, schedule: Q01DX009 (ip), vehicle: saline with Tween-80) 95 % of control.
As for `[Cl][Sn]1([Cl])[N]2CCCCC2C2CCCC[N]21` (stereo unspecified), the T/C was 97 % of control under setting [10] and 99 % of control under setting [11].
Consider `C=CC(=O)N1CN(C(=O)C=C)CN(C(=O)C=C)C1`, for which the T/C runs as follows: (dose: 6.25 mg/kg/injection, schedule: Q01DX009 (ip), vehicle: saline with Tween-80) 100 % of control; under setting [12], 158 % of control.
As to `C[N+]1(C)CCC(Cc2ccccc2)CC1`, the T/C is, setting by setting: (dose: 6.25 mg/kg/injection, schedule: Q01DX005 (ip), vehicle: saline) 101 % of control; (dose: 12.5 mg/kg/injection, schedule: Q01DX005 (ip), vehicle: saline) 92 % of control.
In the case of `CCC(c1ccc2cc(OC)ccc2c1)C(C)(C)C(=O)F` (stereo unspecified), the T/C was 104 % of control (dose: 25.0 mg/kg/injection, schedule: Q04DX003 (ip), vehicle: saline with Tween-80); 104 % of control (dose: 33.0 mg/kg/injection, schedule: Q01DX009 (ip), vehicle: saline with Tween-80); 104 % of control under setting [13]; 104 % of control (dose: 50.0 mg/kg/injection, schedule: Q04DX003 (ip), vehicle: saline with Tween-80); 122 % of control (dose: 75.0 mg/kg/injection, schedule: Q01DX009 (ip), vehicle: saline with Tween-80); 87 % of control under setting [10].
